Source: patent US20210221866A1, “PROTEASE-RESISTANT LIPIDATED GLP-1 ANALOGS” (MEDIMMUNE LIMITED, priority 2015, published 2021)
Read-outs that look alike come from different tables or passages of the source. Numbered stars: 1 amine (or outer) side, 2 acyl side, 3 side chain; on linkers, the order of the positions; unused ones are H or OH. Square brackets hold non-standard residues; d marks the D form. Side chains are listed from the residue outwards. Peptide text beside a SMILES is read from it. * marks the point of attachment. C18 diacid = O=C(O)CCCCCCCCCCCCCCCCC(=O)*; γGlu = O=C(O)[C@H](CCC(=O)[*:2])N[*:1]; αMeF = C[C@](N)(Cc1ccccc1)C(=O)O; αMeK = C[C@](N)(CCCCN)C(=O)O; αMeS = C[C@](N)(CO)C(=O)O; AEEA = NCCOCCOCC(=O)O; Aib = CC(C)(N)C(=O)O

Tests used:
Format in all cases: cell-based
[1] = target: T1, GLP-1R (INS1e cells) (Rattus norvegicus, UniProt P32301); assay: INS1e assay, cAMP activity at GLP-1R; settings: Table 8, substituted and mono-lipidated peptides
T1 construct: endogenous in cells; host or cells: INS1e cells
T1 sequence (P32301 22-463): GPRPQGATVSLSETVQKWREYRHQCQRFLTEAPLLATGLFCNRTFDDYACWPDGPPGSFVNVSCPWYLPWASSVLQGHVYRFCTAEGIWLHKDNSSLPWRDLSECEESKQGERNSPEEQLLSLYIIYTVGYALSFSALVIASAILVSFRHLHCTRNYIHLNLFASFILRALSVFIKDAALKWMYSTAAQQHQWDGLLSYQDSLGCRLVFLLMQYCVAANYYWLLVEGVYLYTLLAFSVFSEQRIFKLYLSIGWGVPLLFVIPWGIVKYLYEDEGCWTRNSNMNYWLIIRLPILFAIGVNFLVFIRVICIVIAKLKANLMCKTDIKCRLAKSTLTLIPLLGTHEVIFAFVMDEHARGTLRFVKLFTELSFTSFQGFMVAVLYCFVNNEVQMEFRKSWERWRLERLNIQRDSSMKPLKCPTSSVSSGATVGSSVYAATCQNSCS

[2] = target: T2, human GLP-1 receptor (GLP-1R) (Homo sapiens, UniProt P43220); assay: cAMP assay, human GLP-1R cells; settings: cAMP activity
T2 construct: expressed in transfected cells; host or cells: HEK293 cells or CHO cells
How it was run: (§1)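 Peptide-stimulated cAMP measured by two-step HTRF after a 30 min room-temperature incubation with receptor-expressing cells (hGLP-1R, hGIPR at 1×10^5 cells/ml; hGCGR at 2×10^5 cells/ml). Duplicate dilutions; EC50 from 4-parameter logistic fit of % Delta F.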

[3] = target: T3, human glucagon receptor (GCGR) (Homo sapiens, UniProt P47871); assay: cAMP assay, human GCGR cells; settings: cAMP activity; second determination (n2); read-out: Primary assay EC50 Gluc-R
T3 construct: expressed in transfected cells; host or cells: HEK293 cells or CHO cells
How it was run: as §1

[4] = target: T4, human glucose-dependent insulinotropic peptide receptor (GIPR) (Homo sapiens, UniProt P48546); assay: cAMP assay, human GIPR cells; settings: cAMP activity, read-out: Primary assay EC50 GIP-R
T4 construct: expressed in transfected cells; host or cells: HEK293 cells or CHO cells
T4 sequence (P48546 22-466): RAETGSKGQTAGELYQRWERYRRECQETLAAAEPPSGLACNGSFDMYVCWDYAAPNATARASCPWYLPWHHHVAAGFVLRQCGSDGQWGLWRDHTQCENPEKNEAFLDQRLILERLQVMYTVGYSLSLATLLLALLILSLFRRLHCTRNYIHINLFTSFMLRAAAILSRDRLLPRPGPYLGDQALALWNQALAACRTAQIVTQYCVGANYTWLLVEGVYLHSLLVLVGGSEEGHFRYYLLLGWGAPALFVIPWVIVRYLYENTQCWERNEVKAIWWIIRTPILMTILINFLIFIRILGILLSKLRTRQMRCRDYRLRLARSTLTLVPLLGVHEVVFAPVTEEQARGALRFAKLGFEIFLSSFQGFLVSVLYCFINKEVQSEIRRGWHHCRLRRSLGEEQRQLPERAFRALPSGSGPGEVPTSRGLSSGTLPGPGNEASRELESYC
How it was run: as §1

[5] = mean of n1 and n2, read-out: INS1e assay EC50 Mean pM GLP-1R
[6] = replicate n1, read-out: INS1e assay EC50 GLP-1R n1
[7] = replicate n2, read-out: INS1e assay EC50 GLP-1R n2
[8] = first determination (n1), read-out: Primary assay EC50 GLP-1R n1
[9] = mean of n1 and n2, read-out: Mean pM GLP-1R
[10] = second determination (n2), read-out: Primary assay EC50 GLP-1R n2

T3 sequence (P47871 26-477): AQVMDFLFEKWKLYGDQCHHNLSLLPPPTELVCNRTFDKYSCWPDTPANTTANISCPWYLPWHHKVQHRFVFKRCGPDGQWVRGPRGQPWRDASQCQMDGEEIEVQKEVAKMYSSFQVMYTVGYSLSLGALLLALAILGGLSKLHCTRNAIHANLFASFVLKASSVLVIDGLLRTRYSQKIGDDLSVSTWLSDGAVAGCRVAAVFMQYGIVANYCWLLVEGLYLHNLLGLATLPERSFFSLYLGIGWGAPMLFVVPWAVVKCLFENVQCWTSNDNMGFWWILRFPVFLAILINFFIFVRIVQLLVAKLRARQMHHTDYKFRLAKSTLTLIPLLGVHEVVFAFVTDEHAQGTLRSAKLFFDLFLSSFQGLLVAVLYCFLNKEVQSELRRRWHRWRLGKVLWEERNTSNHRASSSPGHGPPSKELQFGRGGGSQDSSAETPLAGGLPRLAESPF
T2 sequence (P43220 24-463): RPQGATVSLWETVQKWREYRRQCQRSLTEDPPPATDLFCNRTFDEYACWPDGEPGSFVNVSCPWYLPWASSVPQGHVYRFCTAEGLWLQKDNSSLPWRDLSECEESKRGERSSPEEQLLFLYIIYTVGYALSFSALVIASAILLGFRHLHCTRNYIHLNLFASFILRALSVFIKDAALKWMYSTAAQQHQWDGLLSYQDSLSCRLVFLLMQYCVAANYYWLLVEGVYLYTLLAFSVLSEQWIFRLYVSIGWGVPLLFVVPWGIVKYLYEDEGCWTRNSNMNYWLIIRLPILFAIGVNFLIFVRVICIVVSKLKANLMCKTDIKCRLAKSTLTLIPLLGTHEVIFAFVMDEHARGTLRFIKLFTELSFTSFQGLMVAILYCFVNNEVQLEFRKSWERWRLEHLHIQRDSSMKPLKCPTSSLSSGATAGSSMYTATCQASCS

| SMILES | EC50 [1, 5] | EC50 [1, 6] | EC50 [1, 7] | EC50 [2, 8] | EC50 [2, 9] | EC50 [2, 10] | EC50 [3] | EC50 ([4]; first determination (n1)) | EC50 ([4]; second determination (n2)) |
| --- | --- | --- | --- | --- | --- | --- | --- | --- | --- |
| CC[C@H](C)[C@H](NC(=O)[C@](C)(Cc1ccccc1)NC(=O)[C@H](CCC(=O)O)NC(=O)[C@](C)(CCCCN)NC(=O)[C@H](C)NC(=O)[C@H](C)NC(=O)[C@H](CCC(=O)O)NC(=O)CNC(=O)[C@H](CCC(=O)O)NC(=O)[C@H](CC(C)C)NC(=O)[C@](C)(Cc1ccccc1)NC(=O)[C@H](CO)NC(=O)[C@](C)(CO)NC(=O)[C@@H](NC(=O)[C@H](CC(=O)O)NC(=O)[C@H](CO)NC(=O)[C@@H](NC(=O)[C@](C)(Cc1ccccc1)NC(=O)[C@H](CO)NC(=O)CNC(=O)[C@H](CCC(=O)O)NC(=O)C(C)(C)NC(=O)[C@@H](N)Cc1c[nH]cn1)[C@@H](C)O)C(C)C)C(=O)N[C@@H](C)C(=O)N[C@@](C)(Cc1ccccc1)C(=O)N[C@H](C(=O)N[C@H](C(=O)N[C@@](C)(CCCCN)C(=O)NCC(=O)N[C@@H](CCCCNC(=O)COCCOCCNC(=O)COCCOCCNC(=O)CC[C@H](NC(=O)CCCCCCCCCCCCCCCCC(=O)O)C(=O)O)C(N)=O)C(C)C)C(C)C [compound 99] (H-H[Aib]EGS[αMeF]TSDV[αMeS]S[αMeF]LEGEAA[αMeK]E[αMeF]IA[αMeF]VV[αMeK]GK([AEEA-AEEA-γGlu-C18 diacid])-NH2; N-terminus assumed) | 8440 pM | 11000 pM | 5880 pM | 58 pM | 54 pM | 49.3 pM | ≥ 24.9 nM | ≥ 25 nM | ≥ 24.9 nM |
| CC[C@H](C)[C@H](NC(=O)[C@](C)(Cc1ccccc1)NC(=O)[C@H](CCC(=O)O)NC(=O)[C@](C)(CCCCN)NC(=O)[C@H](C)NC(=O)[C@H](C)NC(=O)[C@H](CCC(=O)O)NC(=O)CNC(=O)[C@H](CCC(=O)O)NC(=O)[C@H](CC(C)C)NC(=O)[C@](C)(Cc1ccccc1)NC(=O)[C@H](CO)NC(=O)[C@](C)(CO)NC(=O)[C@@H](NC(=O)[C@H](CC(=O)O)NC(=O)[C@H](CO)NC(=O)[C@@H](NC(=O)[C@](C)(Cc1ccccc1)NC(=O)[C@H](CO)NC(=O)CNC(=O)[C@H](CCC(=O)O)NC(=O)C(C)(C)NC(=O)[C@@H](N)Cc1c[nH]cn1)[C@@H](C)O)C(C)C)C(=O)N[C@@H](C)C(=O)N[C@@](C)(Cc1ccccc1)C(=O)N[C@H](C(=O)N[C@@H](CCCCNC(=O)COCCOCCNC(=O)COCCOCCNC(=O)CC[C@H](NC(=O)CCCCCCCCCCCCCCCCC(=O)O)C(=O)O)C(=O)N[C@@](C)(CCCCN)C(=O)NCC(=O)NCC(N)=O)C(C)C [compound 102] (H-H[Aib]EGS[αMeF]TSDV[αMeS]S[αMeF]LEGEAA[αMeK]E[αMeF]IA[αMeF]VK([AEEA-AEEA-γGlu-C18 diacid])[αMeK]GG-NH2) | 3560 pM | 4220 pM | 2890 pM | 24 pM | 22 pM | 20.6 pM | ≥ 25.2 nM | ≥ 25 nM | ≥ 25.2 nM |
| CC[C@H](C)[C@H](NC(=O)[C@](C)(Cc1ccccc1)NC(=O)[C@H](CCC(=O)O)NC(=O)[C@](C)(CCCCN)NC(=O)[C@H](C)NC(=O)[C@H](C)NC(=O)[C@H](CCC(=O)O)NC(=O)CNC(=O)[C@H](CCC(=O)O)NC(=O)[C@H](CC(C)C)NC(=O)[C@](C)(Cc1ccccc1)NC(=O)[C@H](CO)NC(=O)[C@](C)(CO)NC(=O)[C@@H](NC(=O)[C@H](CC(=O)O)NC(=O)[C@H](CO)NC(=O)[C@@H](NC(=O)[C@](C)(Cc1ccccc1)NC(=O)[C@H](CO)NC(=O)CNC(=O)[C@H](CCC(=O)O)NC(=O)C(C)(C)NC(=O)[C@@H](N)Cc1c[nH]cn1)[C@@H](C)O)C(C)C)C(=O)N[C@@H](C)C(=O)N[C@@](C)(Cc1ccccc1)C(=O)N[C@@H](CCCCNC(=O)COCCOCCNC(=O)COCCOCCNC(=O)CC[C@H](NC(=O)CCCCCCCCCCCCCCCCC(=O)O)C(=O)O)C(=O)N[C@H](C(=O)N[C@@](C)(CCCCN)C(=O)NCC(=O)NCC(N)=O)C(C)C [compound 103] (H-H[Aib]EGS[αMeF]TSDV[αMeS]S[αMeF]LEGEAA[αMeK]E[αMeF]IA[αMeF]K([AEEA-AEEA-γGlu-C18 diacid])V[αMeK]GG-NH2) | 509 pM | 428 pM | 590 pM | 4.7 pM | 5 pM | 4.56 pM | ≥ 25.2 nM | ≥ 25 nM | ≥ 25.2 nM |
| CC[C@H](C)[C@H](NC(=O)[C@](C)(Cc1ccccc1)NC(=O)[C@H](CCC(=O)O)NC(=O)[C@](C)(CCCCN)NC(=O)[C@H](C)NC(=O)[C@H](C)NC(=O)[C@H](CCC(=O)O)NC(=O)CNC(=O)[C@H](CCC(=O)O)NC(=O)[C@H](CC(C)C)NC(=O)[C@](C)(Cc1ccccc1)NC(=O)[C@H](CO)NC(=O)[C@](C)(CO)NC(=O)[C@@H](NC(=O)[C@H](CC(=O)O)NC(=O)[C@H](CO)NC(=O)[C@@H](NC(=O)[C@](C)(Cc1ccccc1)NC(=O)[C@H](CO)NC(=O)CNC(=O)[C@H](CCC(=O)O)NC(=O)C(C)(C)NC(=O)[C@@H](N)Cc1c[nH]cn1)[C@@H](C)O)C(C)C)C(=O)N[C@@H](CCCCNC(=O)COCCOCCNC(=O)COCCOCCNC(=O)CC[C@H](NC(=O)CCCCCCCCCCCCCCCCC(=O)O)C(=O)O)C(=O)N[C@@](C)(Cc1ccccc1)C(=O)N[C@H](C(=O)N[C@H](C(=O)N[C@@](C)(CCCCN)C(=O)NCC(=O)NCC(N)=O)C(C)C)C(C)C [compound 105] (H-H[Aib]EGS[αMeF]TSDV[αMeS]S[αMeF]LEGEAA[αMeK]E[αMeF]IK([AEEA-AEEA-γGlu-C18 diacid])[αMeF]VV[αMeK]GG-NH2; N-terminus assumed) | 970 pM | 220 pM | 1720 pM | 21 pM | 18 pM | 14.8 pM | ≥ 25 nM | ≥ 25 nM | ≥ 25 nM |
| CC[C@H](C)[C@H](NC(=O)[C@](C)(Cc1ccccc1)NC(=O)[C@H](CCC(=O)O)NC(=O)[C@](C)(CCCCN)NC(=O)[C@H](C)NC(=O)[C@H](C)NC(=O)[C@H](CCC(=O)O)NC(=O)CNC(=O)[C@H](CCC(=O)O)NC(=O)[C@H](CCCCNC(=O)COCCOCCNC(=O)COCCOCCNC(=O)CC[C@H](NC(=O)CCCCCCCCCCCCCCCCC(=O)O)C(=O)O)NC(=O)[C@](C)(Cc1ccccc1)NC(=O)[C@H](CO)NC(=O)[C@](C)(CO)NC(=O)[C@@H](NC(=O)[C@H](CC(=O)O)NC(=O)[C@H](CO)NC(=O)[C@@H](NC(=O)[C@](C)(Cc1ccccc1)NC(=O)[C@H](CO)NC(=O)CNC(=O)[C@H](CCC(=O)O)NC(=O)C(C)(C)NC(=O)[C@@H](N)Cc1c[nH]cn1)[C@@H](C)O)C(C)C)C(=O)N[C@@H](C)C(=O)N[C@@](C)(Cc1ccccc1)C(=O)N[C@H](C(=O)N[C@H](C(=O)N[C@@](C)(CCCCN)C(=O)NCC(=O)NCC(N)=O)C(C)C)C(C)C [compound 115] (H-H[Aib]EGS[αMeF]TSDV[αMeS]S[αMeF]K([AEEA-AEEA-γGlu-C18 diacid])EGEAA[αMeK]E[αMeF]IA[αMeF]VV[αMeK]GG-NH2) | 544 pM | 593 pM | 494 pM | 6 pM | 6 pM | 5.39 pM | ≥ 25.3 nM | ≥ 25 nM | ≥ 25.3 nM |
